Measured values as given in patent EP0104300A1, “Diazolyl alkanoles, process for their preparation and their use as antimycotic agents” (BAYER AG, priority 1982, dated 1984).

Test system: Candida-Zellen
Assay: Antimycotic in-vivo efficacy (oral) in mouse candidosis
Design: species or system Mäuse vom Typ SPF-CF1; key: +++++: sehr gute Wirkung = 90 % Ueberlebende am 6.Tag p.i.; ++++: gute Wirkung = 80 % Ueberlebende am 6 Tag p.i.; +++: Wirkung = 60 % Ueberlebende am 6. Tag p.i.; ++: schwache Wirkung = 40 % Ueberlebende am 6.Tag p.i.; +: Spur Wirkung =; k.W.: keine Wirkung
Conditions: mice infected i.v. with 1 - 2 x 10^6 Candida cells; oral treatment with 50 - 100 mg/kg each, 1 h before and 7 h after infection; survivors on day 6 p.i.
Protocol: Antimykotische in-vivo-Wirksamkeit (oral) bei Mäusecandidose Versuchsbeschreibun:
Mäuse vom Typ SPF-CF1 wurden intravenös mit 1 - 2 x 10^6 logarithmisch wachsenden Candida-Zellen, die in physiologischer Kochsalzlösung suspendiert werden, infiziert. Eine Stunde vor und sieben Stunden nach der Infektion werden die Tiere mit jeweils 50 - 100 mg/kg Körpergewicht der Präparate oral behandelt.
Unbehandelte Tiere starben 3 bis 6 Tage post infektionem. Die Ueberlebensrate am 6.Tag post infektionem betrug bei unbehandelten Kontrolltieren etwa 5 %. In diesem Test zeigten z.B. die erfindungsgemäßen Verbindungen eine bessere Wirkung als die aus dem Stand der Technik bekannten Verbindungen 1 und 3.
+++++ = sehr gute Wirkung = 90 % Ueberlebende am 6.Tag p.i. ++++ = gute Wirkung = 80 % Ueberlebende am 6 Tag p.i. +++ = Wirkung = 60 % Ueberlebende am 6. Tag p.i. ++ = schwache Wirkung = 40 % Ueberlebende am 6.Tag p.i. + = Spur Wirkung = k.W. = keine Wirkung

SMILES	Wirkung
Cc1ccccc1OCC(O)(Cn1ccnc1)C(C)(C)C (centres unmarked) [(C)]	k.W.
OC(C#Cc1ccccc1)(Cn1cncn1)Cn1cncn1 [Beispiel 1, 3-Hydroxy-1-phenyL-4-(1,2,4-triazol-1-yl)-3-(1,2,4-triazol-1-yl-methyl)-1-butin]	+++ (Wirkung = 60 % Ueberlebende am 6. Tag p.i.)
OC(C#Cc1ccc(Cl)cc1)(Cn1cncn1)Cn1cncn1 [Beispiel 3]	+++++ (sehr gute Wirkung = 90 % Ueberlebende am 6.Tag p.i.)
CC(C)(C)C(O)(COc1ccc(Cl)cc1)Cn1ccnc1 (centres unmarked) [(B), 2-(4-Chlorphenoxymethyl)-3,3-dimethyl-1-(imidazol-1-yl)-butan-2-ol]	k.W.
OC(Cc1ccc(Cl)cc1Cl)(Cn1ccnc1)c1ccc(-c2ccccc2)cc1 (centres unmarked) [(A), 2-(4-Biphenylyl)-1-(2,4-dichlorphenyl)-3-(imidazoL-1-yL)-2-propanoL]	k.W.
